Laboratory results: patent US20240025906A1 (NEURON23, INC., priority 2022, published 2024)
pIC50, pKd: −log10 of the molar value. Like-named read-outs stand apart in the source and are kept apart here.

Experiments:
TYK2 JH2 = molecular target: T1, TYK2 JH2 (Homo sapiens, UniProt P29597); assay: TYK2 JH2 binding assay (KINOMEscan KdELECT competitive binding); conditions: TYK2 JH2 domain
T1 construct: purchased DiscoverX (KINOMEscan KdELECT service); host or cells: E. coli BL21-derived (T7 phage display) or HEK-293
T1 sequence (P29597 589-875 limits assumed): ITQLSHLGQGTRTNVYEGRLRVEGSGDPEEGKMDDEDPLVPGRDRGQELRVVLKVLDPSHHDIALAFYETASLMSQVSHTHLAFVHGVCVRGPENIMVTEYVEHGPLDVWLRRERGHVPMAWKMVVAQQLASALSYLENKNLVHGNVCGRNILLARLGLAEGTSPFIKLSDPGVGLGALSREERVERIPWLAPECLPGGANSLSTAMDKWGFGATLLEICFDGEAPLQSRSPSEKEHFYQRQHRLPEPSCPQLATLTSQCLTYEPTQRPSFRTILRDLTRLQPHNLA
In short: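 JH2-domain fragment, expressed as T7 phage tag in BL21-derived E. coli or DNA-tagged from HEK-293, competed with test compound against bead-immobilized biotinylated ligand in binding buffer (0.9% DMSO). 1 h shaking at room temperature; bound kinase eluted with 0.5 μM free ligand and quantified by qPCR. Kd from 11-point 3-fold dilutions.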

[1] = system: JAK1/TYK2 pSTAT5 (Tyr694/699) in THP-1 cell line; assay: IFNa-stimulated JAK1/TYK2 pSTAT5 (Tyr694/699) inhibition cellular assay, AlphaLISA; format: cell-based; conditions: Homo sapiens, THP-1 cells, AlphaLISA (Assay B)
In short: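 pSTAT5 (Tyr694/699) in lysates quantified by AlphaLISA (615 nm) after 30 min IFNa stimulation (100 ng/mL stock) of THP-1 cells. The cells, 2e4 per well in HBSS, had first been exposed 1 h at 37° C. to eight 6-fold compound dilutions, 10000 down to 0.04 nM final. IC50 fitted by 4PL regression, bottom 0, Hill slope −1.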

[2] = DiscoverX KINOMEscan KdELECT (Assay A), read-out: Biochemical TYK2_DiscoverX_JH2_BND_Kd
[3] = IFNa-stimulated, read-out: Cellular_THP1_IFNa-pSTATS_TYK2
[4] = KINOMEscan KdELECT (Assay A), read-out: Biochemical TYK2_DiscoverX_JH2_BND_Kd
[5] = KINOMEscan KdELECT (Assay A), read-out: Biochemical TYK2_JH2_Kd
[6] = IFNa-stimulated, read-out: Cellular THP1_IFNa-pSTATS_IC50

pKd (TYK2 JH2; [2]) | pIC50 [1, 3] | pKd (TYK2 JH2; [4]) | Compound | further results
≥ 7.00 | ≥ 6.30 | – | CNc1ncc(-c2nc3cc(CC#N)ccc3o2)c2cc(NC(=O)C3CC3)ncc12 [Example 245, N-(5-(5-(cyanomethyl)benzo[d]oxazol-2-yl)-8-(methylamino)-2,7-naphthyridin-3-yl)cyclopropanecarboxamide] | –
– | – | ≥ 7.00 | CNc1ncc(-c2nc3ccc(N4CCOC(C(C)(C)O)C4)cn3n2)c2cc(NC(=O)C3CC3)ncc12 (stereo not shown) [Example 1026] | pIC50 ([1]; IFNa-stimulated pSTAT5 (Tyr694/699), read-out: Cellular_THP1_IFNa-pSTATS_TYK2): ≥ 6.30
≥ 7.00 | ≥ 6.30 | – | CNc1ncc(-c2nc3cc(N4CC5CN(C)CC(C4)O5)ccc3o2)c2cc(NC(=O)C3CC3)ncc12 [Example 327, N-(5-(5-(7-methyl-9-oxa-3,7-diazabicyclo[3.3.1]nonan-3-yl)benzo[d]oxazol-2-yl)-8-(methylamino)-2,7-naphthyridin-3-yl)cyclopropanecarboxamide] | –
– | ≥ 6.30 | ≥ 7.00 | CNc1ncc(C#Cc2ccc3occc3n2)c2cc(NC(=O)C3CC3)ncc12 [Example 666, N-(5-(furo[3,2-b]pyridin-5-ylethynyl)-8-(methylamino)-2,7-naphthyridin-3-yl)cyclopropanecarboxamide] | –
≥ 7.00 | ≥ 6.30 | – | CNc1ncc(-c2nc3cc(N4CCOCC4)ccc3o2)c2cc(Nc3cc(C)nc(C)n3)ncc12 [Example 449, N^6-(2,6-dimethylpyrimidin-4-yl)-N^1-methyl-4-(5-morpholinobenzo[d]oxazol-2-yl)-2,7-naphthyridine-1,6-diamine] | –
– | – | – | CNc1ncc(-c2ccc(OCC(F)(F)F)cc2)c2cc(NC(=O)C3CC3)ncc12 [Example 111, N-(8-(methylamino)-5-(4-(2,2,2-trifluoroethoxy)phenyl)-2,7-naphthyridin-3-yl)cyclopropanecarboxamide] | pKd (TYK2 JH2; [5]): ≥ 7.00; pIC50 [1, 6]: < 6.30
– | ≥ 6.30 | ≥ 7.00 | CNc1ncc(C#Cc2ccc(OC(F)F)cn2)c2cc(NC(=O)C3CC3)ncc12 [Example 645, N-(5-((5-(difluoromethoxy)pyridin-2-yl)ethynyl)-8-(methylamino)-2,7-naphthyridin-3-yl)cyclopropanecarboxamide] | –
≥ 7.00 | < 6.30 | – | CNc1ncc(-c2nc3ccc(N4C[C@@H](C)O[C@@H](C)C4)cn3n2)c2cc(N)ncc12 [Example 553, 4-(6-((2R,6S)-2,6-dimethylmorpholino)-[1,2,4]triazolo[1,5-a]pyridin-2-yl)-N^1-methyl-2,7-naphthyridine-1,6-diamine] | –
– | – | – | CNc1ncc(-c2nc3cc(F)ccc3o2)c2cc(NC(=O)C3CC3)ncc12 [Example 181, N-(5-(5-fluorobenzo[d]oxazol-2-yl)-8-(methylamino)-2,7-naphthyridin-3-yl)cyclopropanecarboxamide] | pKd (TYK2 JH2; [5]): ≥ 7.00; pIC50 [1, 6]: ≥ 6.30
– | – | – | CNc1ncc(-c2ccsn2)c2cc(NC(=O)C3CC3)ncc12 [Example 82, N-(5-(isothiazol-3-yl)-8-(methylamino)-2,7-naphthyridin-3-yl)cyclopropanecarboxamide] | pKd (TYK2 JH2; [5]): ≥ 7.00; pIC50 [1, 6]: < 6.30
– | ≥ 6.30 | ≥ 7.00 | CNc1ncc(C#Cc2ccc(OCC3CN(C)C3)cc2)c2cc(NC(=O)C3CC3)ncc12 [Example 712, N-(8-(methylamino)-5-((4-((1-methylazetidin-3-yl)methoxy)phenyl)ethynyl)-2,7-naphthyridin-3-yl)cyclopropanecarboxamide] | –
≥ 7.00 | ≥ 6.30 | – | CNc1ncc(-c2nc3cc(OCF)ccc3o2)c2cc(NC(=O)C3CC3)ncc12 [Example 339, N-(5-(5-(fluoromethoxy)benzo[d]oxazol-2-yl)-8-(methylamino)-2,7-naphthyridin-3-yl)cyclopropanecarboxamide] | –
≥ 7.00 | ≥ 6.30 | – | CNc1ncc(-c2nc3cc(CC(F)(F)F)ccc3o2)c2cc(NC(=O)C3CC3)ncc12 [Example 255, N-(8-(methylamino)-5-(5-(2,2,2-trifluoroethyl)benzo[d]oxazol-2-yl)-2,7-naphthyridin-3-yl)cyclopropanecarboxamide] | –
– | < 6.30 | ≥ 7.00 | CNc1ncc(C2=CCC(c3ncn(C)n3)C2)c2cc(NC(=O)C3CC3)ncc12 (stereo not shown) [Example 834, N-(5-(4-(1-methyl-1H-1,2,4-triazol-3-yl)cyclopent-1-en-1-yl)-8-(methylamino)-2,7-naphthyridin-3-yl)cyclopropanecarboxamide] | –
– | ≥ 6.30 | ≥ 7.00 | CNc1ncc(C#Cc2ccc(OC3CN(C(=O)C4CC4)C3)cc2)c2cc(NC(=O)C3CC3)ncc12 [Example 771, N-(5-((4-((1-(cyclopropanecarbonyl)azetidin-3-yl)oxy)phenyl)ethynyl)-8-(methylamino)-2,7-naphthyridin-3-yl)cyclopropanecarboxamide] | –
≥ 7.00 | < 6.30 | – | CNc1ncc(-c2nc3c(N4CCC4COC)cccc3o2)c2cc(NC(=O)C3CC3)ncc12 (stereo not shown) [Example 220, N-(5-(4-(2-(methoxymethyl)azetidin-1-yl)benzo[d]oxazol-2-yl)-8-(methylamino)-2,7-naphthyridin-3-yl)cyclopropanecarboxamide] | –
– | ≥ 6.30 | ≥ 7.00 | CNc1ncc(C#Cc2ccc(CN3CCOCC3)cc2)c2cc(NC(=O)C3CC3)ncc12 [Example 820, N-(8-(methylamino)-5-((4-(morpholinomethyl)phenyl)ethynyl)-2,7-naphthyridin-3-yl)cyclopropanecarboxamide] | –
– | ≥ 6.30 | ≥ 7.00 | CNc1ncc(C#Cc2ccc(OC3CN(C(C)=O)C3)cc2)c2cc(NC(=O)C3CC3)ncc12 [Example 705, N-(5-((4-((1-acetylazetidin-3-yl)oxy)phenyl)ethynyl)-8-(methylamino)-2,7-naphthyridin-3-yl)cyclopropanecarboxamide] | –
– | ≥ 6.30 | ≥ 7.00 | CNc1ncc(-c2nc3cc(N4CCO[C@H](C(F)F)C4)ccc3o2)c2cc(NC(=O)C3CC3)ncc12 (single isomer, unassigned) [Example 935] | –
– | – | – | CNc1nc(C)cc2cc(NC(=O)C3CC3)ncc12 [Example 163, N-(6-methyl-8-(methylamino)-2,7-naphthyridin-3-yl)cyclopropanecarboxamide] | pKd (TYK2 JH2; [5]): 6.00 to 7.00; pIC50 [1, 6]: < 6.30
– | ≥ 6.30 | ≥ 7.00 | CNc1ncc(C#Cc2ccc(N3CC4CN(C)CC(C3)O4)cn2)c2cc(NC(=O)C3CC3)ncc12 [Example 733, N-(5-((5-(7-methyl-9-oxa-3,7-diazabicyclo[3.3.1]nonan-3-yl)pyridin-2-yl)ethynyl)-8-(methylamino)-2,7-naphthyridin-3-yl)cyclopropanecarboxamide] | –
≥ 7.00 | ≥ 6.30 | – | [2H]C([2H])([2H])Nc1ncc(-c2nc3cc(N4CC(OC)C4)ccc3o2)c2cc(NC(=O)[C@H]3C[C@H]3C)ncc12 [Example 469, (1S,2R)—N-(5-(5-(3-methoxyazetidin-1-yl)benzo[d]oxazol-2-yl)-8-((methyl-d3)amino)-2,7-naphthyridin-3-yl)-2-methylcyclopropane-1-carboxamide] | –
– | ≥ 6.30 | ≥ 7.00 | CNc1ncc(C#Cc2ccc3c(c2)CCNC3)c2cc(NC(=O)C3CC3)ncc12 [Example 956, N-(8-(methylamino)-5-((1,2,3,4-tetrahydroisoquinolin-6-yl)ethynyl)-2,7-naphthyridin-3-yl)cyclopropanecarboxamide] | –
